{
  "source": "patent US6605619B1",
  "about": "“Nitroxides as protectors against oxidatives stress” (The United States of America as represented by the …, priority 1992, dated 2003)",
  "key": {"[1]": {"experiment": "SOD-inhibitable ferricytochrome c reduction assay, rate constants of reaction with O2 (SOD-like activity)", "assay_type": "biochemical", "conditions": "low ionic strength (10 mM HEPES), pH 7.0, 22° C.", "description": "As a further check, the reaction of representatives of both 5- and 6-membered cyclic nitroxides with O2 was studied. The SOD-inhibitable ferricytochrome c reduction assay (Fridovich, Handbook of Methods for Oxygen Radical Research, 213-215, 1985) was used to determine rate constants of reaction with O2. […] The reaction was started by adding 0.01 U/ml XO and the rate of ferricytochrome c reduction, in the absence (V) and in the presence (v) of various nitroxides, was spectrophotometrically followed at 550 nm. Both reference and sample cuvettes contained all the reagents, with the reference cuvette containing 100 units/ml SOD, thereby eliminating spurious reactions from interfering with the determination of rate constants. Data were analyzed by plotting V/v as a function of [nitroxide] and k1 was calculated, knowing kCytC+superoxide, according to:\n(V/v)−1=k1x[nitroxide]/kCytC+superoxidex[Cyt−c^III]."}, "[2]": {"test_system": "V79 cells", "experiment": "Nitroxide intracellular localization by EPR with trioxalato-chromiate", "assay_type": "cell-based, Chinese hamster", "experimental": "The EPR signal intensity of the total concentration of CHD (intra- and extra-cellular) in 6.4×10^7 V79 cells/ml traces (A and C) and in the presence of 110 mM trioxalato-chromiate (CrOx) (traces B and D).\nFor EPR experiments, samples (0.05-0.1 ml) either of solutions of chemicals or cell suspensions were drawn by a syringe into a gas-permeable teflon capillary of 0.8 mm inner diameter, 0.05 mm wall thickness (Zeus Industrial Products, Inc. Raritan, N.J.). Each capillary was folded twice, inserted into a narrow quartz tube which was open at both ends (2.5 mm ID), and then placed horizontally into the EPR cavity. During the experiments, gases of desired compositions were blown around the sample without having to disturb the alignment of the tube within the EPR cavity. EPR spectra were recorded in a Varian E4 (or E9) X-band spectrometer, with field set at 3357 G, modulation frequency of 100 KHz, modulation amplitude of 1 G and non-saturating microwave power. The EPR spectrometer was interfaced to an IBM-PC through an analog-to-digital converter and a data translation hardware (DT2801) and the spectra were digitized using commercial acquisition software, enabling subtraction of background signals. To study the kinetics of the spin-loss, the spectra were deliberately overmodulated, and the magnetic field was kept constant while the intensity of the EPR signal was followed. […]"}, "[3]": {"experiment": "H2O2 accumulation and decay in tissue culture exposed to HX/XO (H2O2 selective electrode)", "assay_type": "cell-based, Chinese hamster", "conditions": "presence of CHD", "procedure": "Chinese hamster V79 cells were plated in full medium and incubated at 37° C. with 5 mM HX+0.04 U/ml XO, sampled at various time points, and assayed for H2O2 using a hydrogen peroxide selective electrode.\nHydrogen peroxide was assayed using a YSI Model 27 Industrial Analyzer (Yellow Springs Instruments) equipped with a selective electrode for H2O2. For analysis of cellular preparations, the cells, except during the brief time required for removal of aliquots for analysis, were kept in T25 culture flasks maintained at 37° C. in complete medium (pH 7.2). Aliquots of 25 μl were sampled from the reaction or cell preparation system at varying time points and injected into the analyzer. [H2O2] was determined after calibrating the instrument with known concentrations of H2O2. The concentrations of standard H2O2 solutions were calibrated using iodometric assay (Hochanadel, J. Phys. Chem., 56, 587-594, 1952)."}, "[4]": {"experiment": "EPR signal of nitroxides exposed to O2 flux formed by HX/XO (spin-loss)", "assay_type": "biochemical", "conditions": "% from total R′RNO + R′RNOH after exposure to 5 mM HX + 0.03 U/ml XO in air-saturated PBS pH 7.2", "procedure": "For EPR experiments, samples (0.05-0.1 ml) either of solutions of chemicals or cell suspensions were drawn by a syringe into a gas-permeable teflon capillary of 0.8 mm inner diameter, 0.05 mm wall thickness (Zeus Industrial Products, Inc. Raritan, N.J.). Each capillary was folded twice, inserted into a narrow quartz tube which was open at both ends (2.5 mm ID), and then placed horizontally into the EPR cavity. During the experiments, gases of desired compositions were blown around the sample without having to disturb the alignment of the tube within the EPR cavity. EPR spectra were recorded in a Varian E4 (or E9) X-band spectrometer, with field set at 3357 G, modulation frequency of 100 KHz, modulation amplitude of 1 G and non-saturating microwave power. The EPR spectrometer was interfaced to an IBM-PC through an analog-to-digital converter and a data translation hardware (DT2801) and the spectra were digitized using commercial acquisition software, enabling subtraction of background signals. To study the kinetics of the spin-loss, the spectra were deliberately overmodulated, and the magnetic field was kept constant while the intensity of the EPR signal was followed."}, "[5]": {"test_system": "DNA-Fe(II)", "experiment": "Reaction of nitroxide with DNA-Fe(II), EPR spin-loss and OD353nm", "assay_type": "biochemical, Salmon", "conditions": "hypoxic mixing, 0.1 mg/ml Salmon DNA, 50 mM MOPS pH 7.0, 22° C.", "procedure": "All solutions always contained 0.1 mg/ml Salmon DNA. The appearance of DNA-Fe(III) was spectrophotometrically monitored at 353 nm, whereas the spin-loss of CHD was monitored by following its EPR signal. To study the time-dependence of ΔOD353nm (∘), 1 mM CHD was mixed with 0.1 mM Fe(II). To follow the spin-loss of CHD (□), 1 mM Fe(II) was mixed with 0.1 mM CHD.\nIt was also questioned whether the aerobic and hypoxic protection by CHD to H2O2 exposure was a result of CHD directly accepting electrons from ferrous ions, thereby preventing generation of .OH. Because cellular iron is chelated, the possible reaction of nitroxide with chelated iron(II) was examined by repeating the experiment in the presence of DNA. To study the possibility of nitroxide-induced oxidation of transition metals, CHD was hypoxically mixed with iron(II) in the presence of 0.1 mg/ml Salmon DNA. Consequently, DNA-Fe(III) was formed and the nitroxide EPR signal disappeared. The reaction kinetics were investigated by maintaining either CHD or Fe(II) in excess while the absorbance due to DNA-Fe(III) and the nitroxide spin-loss were monitored respectively (FIG. 6). Both the decay of the EPR signal and the appearance of the OD353nm obeyed pseudo 1st order kinetics from which the 2nd order reaction rate constant was calculated as 44 M^−1s^−1 or 33 M^−1s^−1 using the data from EPR or optical absorption, respectively."}, "[6]": {"test_system": "Chinese hamster V79 cells", "experiment": "Protection of cells exposed to HX/XO, clonogenic survival", "assay_type": "cell-based", "conditions": "0.05 U/ml XO + 0.5 mM HX, 37° C.; 5 mM nitroxide; 100 U/ml catalase; SOD; 500 μM DF preincubated 2 h", "procedure": "Chinese hamster V79 cells were grown in F12 medium supplemented with 10% fetal calf serum, penicillin, and streptomycin. Survival was assessed in all studies by the clonogenic assay. The plating efficiency range between 80-90%. Stock cultures of exponentially growing cells were trypsinized, rinsed, and plated (5×10^5 cells/dish) into a number of 100 mm petri dishes and incubated 16 h at 37° C. prior to experimental protocols. Cells were exposed for 1 h at 37° C. to either 0.5 mM hypoxanthine (HX)+0.05 U/ml of xanthine oxidase (XO) for varying lengths of time, or to H2O2 at different concentrations. To assess possible modulation in cytotoxicity, catalase, 100 U/ml; SOD, 100 μg/ml; DF, 500 μM; and 5 mM of each of the nitroxides from Table 1 were added to parallel cultures. CHD was prepared in a stock solution in ethanol and diluted into medium such that the final concentration was 5 mM. […] TEMPOL is water soluble and was prepared directly in tissue culture medium. […] DF was added either 2 h prior to or during treatment while the other agents were present only during HX/XO or H2O2 treatment. Following treatment, cells were rinsed, trypsinized, counted, and plated for macroscopic colony formation. For each dose determination cells were plated in triplicate and the experiments were repeated a minimum of two times. Plates were incubated 7 days, after which colonies were fixed with methanol/acetic acid, stained with crystal violet, and counted. Colonies containing >50 cells were scored. Error bars represent S.D. of the mean and are shown when larger than the symbol."}},
  "note": "Marks after values point to notes of the source that are not given here.",
  "data": [
    {"smiles": "CC1(C)CN([O])C2(CCCCC2)O1", "note": "[CHD, 2-spirocyclohexane-5,5-dimethyl-3-oxazolidinoxyl]", "values": [
      {"measurement": "kR′RNO + O2", "setting": "[1]", "result": "3.5 × 10^3 M − 1^s − 1"},
      {"measurement": "intracellular location / freedom of motion", "setting": "[2]", "result": "located primarily in a membranous compartment"},
      {"measurement": "pattern of H2O2 generation by HX/XO", "setting": "[3]", "result": "did not significantly alter"},
      {"measurement": "Steady state EPR signal (%)", "setting": "[4]", "result": 30, "unit": "%"},
      {"measurement": "2nd order reaction rate constant with DNA-Fe(II), from EPR data", "setting": "[5]; EPR spin-loss", "result": 44, "unit": "M⁻¹ s⁻¹"},
      {"measurement": "2nd order reaction rate constant with DNA-Fe(II), from optical absorption", "setting": "[5]; OD353nm", "result": 33, "unit": "M⁻¹ s⁻¹"},
      {"measurement": "cell survival / protection from HX/XO", "setting": "[6]", "result": "fully protected"}
    ]}
  ]
}
